Data as given in patent US12419976B2, “Hybrid tracers for targeted cancer imaging and treatment” (ACADEMISCH ZIEKENHUIS LEIDEN (H.O.D.N. LUMC), priority 2018, dated 2025).
“And” between values parts separate entries of the source, which are not always exact repeats. Equal values may be shown once. Where a SMILES comes first, the peptide text is derived from it. [ ]: non-standard residue; d: D form. The star is where a group is joined. X1 = O=C(O)CC[C@H](NC(=O)N[C@@H](CCCCNC(=O)CCCCCCC(=O)*)C(=O)O)C(=O)O; d2Nal = N[C@H](Cc1ccc2ccccc2c1)C(=O)O; Mercaptoacetyl = O=C(CS)*

Key:
PSMA [1] = target: T1, PSMA (Homo sapiens, UniProt Q04609); test: Competitive binding assay, LNCaP cells, EuK[125I]I-BA radioligand; conditions: for IC50: human LNCaP cells, EuK[125I]I-BA competitive radioligand, n ≥ 3, read-out: IC50 (PSMA affinity)
T1 construct: endogenous in cells; host or cells: LNCaP cells
T1 sequence (Q04609 whole entry): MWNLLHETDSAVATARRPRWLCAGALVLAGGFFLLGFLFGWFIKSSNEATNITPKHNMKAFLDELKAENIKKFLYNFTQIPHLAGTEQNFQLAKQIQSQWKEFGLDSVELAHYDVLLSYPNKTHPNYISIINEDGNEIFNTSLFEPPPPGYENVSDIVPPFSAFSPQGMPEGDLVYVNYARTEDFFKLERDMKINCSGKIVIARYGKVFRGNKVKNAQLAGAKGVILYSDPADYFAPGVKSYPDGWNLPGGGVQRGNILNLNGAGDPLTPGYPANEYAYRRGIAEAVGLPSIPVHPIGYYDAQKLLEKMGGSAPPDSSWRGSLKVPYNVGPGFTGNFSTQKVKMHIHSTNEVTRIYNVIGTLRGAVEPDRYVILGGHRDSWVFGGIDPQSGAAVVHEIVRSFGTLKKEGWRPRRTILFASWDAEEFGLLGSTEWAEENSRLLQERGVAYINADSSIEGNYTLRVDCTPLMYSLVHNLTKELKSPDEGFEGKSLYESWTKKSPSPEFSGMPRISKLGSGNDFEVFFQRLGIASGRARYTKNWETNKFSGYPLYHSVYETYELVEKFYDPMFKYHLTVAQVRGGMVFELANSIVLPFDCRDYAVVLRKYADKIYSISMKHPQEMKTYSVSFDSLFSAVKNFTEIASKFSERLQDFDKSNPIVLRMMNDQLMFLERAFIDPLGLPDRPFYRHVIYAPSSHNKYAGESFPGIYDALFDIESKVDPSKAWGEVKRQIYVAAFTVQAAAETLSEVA
Protocol: (§1) Fluoresence confocal microscopy was utilised as a tool for receptor localisation. As depicted in FIG. 3, a typical PSMA-targeting tracer brightly stains the extracellular receptor. IC50 was determined in a competitive binding assay using human LNCaP cells and EuK[^125I]I-BA as competitive radioligand.

[2] = Photophysical properties of Cy5 dyes and hybrid tracers in PBS; assay type: physicochemical; conditions: for Brightness: determined using the ε of the hybrid tracer's corresponding fluorophore
Protocol: The brightness of a dye—one of the most important photophysical characteristics in a clinical setting—is the product of its molar extinction coefficient (e) and quantum yield (ϕF). We therefore set out to determine the e of each fluorophore by creating a linear concentration range (7.5-0.25 μM) in PBS and measuring the corresponding absorbance (Table 1). The addition of a sulfonate on the carboxylic-acid-containing indoline moiety diminishes the epsilon and the use of extra aryl moieties on the cyanine backbone greatly diminishes the dyes' solvability and thus their epsilon is greatly diminished as well.
The ϕF of a fluorophore is the relation between the number of photons emitted divided by the number of photons absorbed by a single molecule. It is therefore also called the emission efficiency. […] Perhaps an asymmetrical cyanine core, with its significant electron density imbalance, is an inefficient fluorophore. In line with our expectations-since the benzo[e]indole caused J-aggregate formation, the ϕF of benzo[e]indole-containing fluorophores were diminished. […] The only trend derived from the abovementioned data is that the free fluorophore benefits (when optimising emission efficiency) from symmetrical substituents on the cyanine structure.
As the brightness of a fluorophore (or hybrid tracer) is one of its most important photophysical traits, we calculated the brightness for all fluorophores. In order to give insight in the hybrid tracer's optical performance, the brightness was determined by using the ε of its corresponding fluorophore in PBS. […] EuK(SO3)-Cy5-MAS3 thus contains the most favourable photophysical characteristics out of these 6 exemplary hybrid tracers.

serum albumin = serum albumin (Homo sapiens, UniProt P02768); test: Plasma protein binding (serum binding); assay type: in vitro ADME; conditions: for Plasma protein binding (PPB): FIG. 2A; for fraction unbound: serum albumin, n = 3 (Table 3)
serum albumin, sequence (P02768 25-609): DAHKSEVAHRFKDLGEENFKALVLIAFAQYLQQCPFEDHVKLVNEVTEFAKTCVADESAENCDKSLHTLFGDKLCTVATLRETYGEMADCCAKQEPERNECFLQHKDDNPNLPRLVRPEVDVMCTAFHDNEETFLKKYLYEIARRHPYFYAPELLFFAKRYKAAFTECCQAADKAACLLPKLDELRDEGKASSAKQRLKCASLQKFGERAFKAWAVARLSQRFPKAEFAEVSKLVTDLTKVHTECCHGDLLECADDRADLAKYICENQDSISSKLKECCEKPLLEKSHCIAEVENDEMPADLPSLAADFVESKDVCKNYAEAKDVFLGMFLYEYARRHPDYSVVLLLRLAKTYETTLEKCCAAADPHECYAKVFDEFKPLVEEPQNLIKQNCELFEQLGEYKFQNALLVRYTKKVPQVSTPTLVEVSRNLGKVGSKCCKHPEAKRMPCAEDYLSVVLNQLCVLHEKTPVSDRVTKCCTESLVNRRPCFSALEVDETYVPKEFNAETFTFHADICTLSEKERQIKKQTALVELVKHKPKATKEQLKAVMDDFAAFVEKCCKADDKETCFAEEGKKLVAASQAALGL
Excerpt: FIG. 2 illustrates the results for plasma protein interaction assays for exemplary hybrid tracer compounds. A) Plasma protein binding as a percentage of the indicated hybrid tracers bound to serum albumin. All hybrid tracers portray significant differences (p<0.05) except when noted (ns).
Serum binding, or rather plasma protein binding (PPB) is a useful pharmacokinetic characteristic for the initial assessment of tracer candidates prior to in vivo use as PPB is directly related to, e.g., blood retention and clearance rates. All hybrid tracers have PPB with values between 52-89% with an average of 76±12% (FIG. 2A). The benzo[e]indole-containing hybrid tracers (EuK(Ar)-Cy5-MAS3, EuK-Cy5-(Ar)MAS3 and EuK(Ar)Cy5-(Ar)MAS3) tend to have the highest PPB. […] This can be explained by Sudlow's site, a binding pocket in albumin's subdomain IIA, which binds bulky heterocyclic anions. No clear correlation could be found between c log D and serum binding. Even though PPB has a relation to the lipophilicity, it was expected that we could not predict the PPB based on the c log D as the PPB cannot be explained by a single physiochemical characteristic.

[3] = Stability in serum at 37° C., absorbance and fluorescence after 24 h; assay type: in vitro ADME; conditions: for Serum stability after 24 h, remaining absorbance / Serum stability after 24 h, remaining fluorescence: n = 2
Protocol: Not only serum binding, but also the stability in serum is valuable. This characteristic is another brick in the wall for the preclinical evaluation of hybrid tracers since this indicates a compound's in vivo stability. Clearly, any compound degrading in an in vivo environment is not suited for clinical use. All hybrid tracers were incubated in serum at 37° C. and their absorbance and fluorescence were measured after 24 h.

[4] = Lipophilicity logP(o/w) of 99mTc-labeled hybrid tracers; assay type: physicochemical; conditions: octanol/water, n = 6
[5] = test system: orthotopically transplanted PC346C cells; test: Ex vivo biodistribution in tumour-bearing mice; conditions: for Hepatic clearance: FIG. 5C, in %ID/g; for Tumour-to-fat ratio (T/F): FIG. 5D
Protocol: (§2) A) In vivo SPECT imaging. Coronal SPECT imaging image of prostate tumour-bearing mice injected with either one of the PSMA hybrid tracer analogues. Organs are denoted as Lu (lungs), Li (liver), G (gallbladder), S (spleen), K (kidneys), B (bladder) and T (tumour). B) Comparison of biodistribution of the hybrid tracer matrix compared to the clinically approved tracer PSMA I&S, with C) providing the biodistribution of hybrid tracer EUK(SO3)—CY5-MAS3. Biodistribution pattern at 2 h post injection of the different hybrid tracers from the matrix compared to the reference tracer PSMA I&S depicted as percentage of the injected dose per gram tissue (% ID/g).
FIG. 5 illustrates biodistribution parameters and tumour uptake for exemplary hybrid tracers. Overview of A) the % Injected activity found in all excised organs percentage of the injected activity that remained at 2 h post tracer injection (all ns), B) the amount of radioactivity still present in the blood pool and C) no significant differences in hepatic clearance between the compounds. To highlight the visibility of the tumour over background tissue notorious for occluding signal within the area of the prostate, the D) tumour-to-fat and E) the tumour-to-blood ratio are provided for the individual hybrid tracers. Significance portrayed as: nothing (non-significant) *(p≤0.05) **(p≤0.01) ***(p≤0.001).
(§3) The in vivo characteristics were investigated in male BALB/c nude mice using orthotopically transplanted PC346C cells. These mice were analysed in various ways, i.e., in vivo nuclear imaging (SPECT) in tumour-bearing mice, in vivo optical imaging (fluorescence imaging) in tumour-bearing mice, ex vivo biodistribution (percentage injected dose per gram (% ID/g)) in healthy and tumour-bearing mice and ex vivo fluorescence imaging.

[6] = test system: orthotopically transplanted PC346C cells; test: In vivo SPECT imaging in tumour-bearing mice; conditions: tumour-bearing nude BALB/c mice, FIG. 4A
Protocol: as §2, §3

PSMA [7] = target: T1, PSMA; test: Fluorescence confocal microscopy of LNCaP cells; assay type: cell-based; conditions: FIG. 3
Protocol: A) provides a brightfield image of incubated cells. B) provides an overlay of confocal images of incubated cells with Cy5-related signal of the PSMA-targeting tracer in red, the nucleus in blue and lysosomes in the cytoplasm in green. C) provides an overlay of the confocal and brightfield images.
as §1

| IC50 (PSMA [1]) | Stokes shift [2] [nm] | ΦF (quantum yield) [2] [%] | λem [2] [nm] | λex [2] [nm] | Brightness [2] | Plasma protein binding (PPB) (serum albumin) | fraction unbound (serum albumin) | Serum stability after 24 h, remaining absorbance [3] [% remaining] | Serum stability after 24 h, remaining fluorescence [3] [% remaining] | logP [4] | Hepatic clearance [5] | Tumour-to-fat ratio (T/F) [5] | Serum stability (comparison between tracers) ([3]; p<0.05) | PSMA affinity relative to EuK-Cy5(SO3)-MAS3 (PSMA [1]; ratio of affinities) | Tumour-to-blood ratio (T/B) ([5]; FIG. 5E) | Staining of LNCaP cells (confocal) (PSMA [7]) | Blood retention ([5]; 2 h post injection, FIG. 5B) [ID/g] | Structure (SMILES) | Nuclear (SPECT) imaging of the tumour [6] | Kidney accumulation ([5]; biodistribution 2 h post injection) [ID/g] |
| --- | --- | --- | --- | --- | --- | --- | --- | --- | --- | --- | --- | --- | --- | --- | --- | --- | --- | --- | --- | --- |
| 164 ± 76.9 nM | 17 | 9 | 680 | 663 | 5^‡ 10^3 M^−1 · cm^−1 | highest PPB | 0.11 | 75 ± 0 | 76 ± 0 | -1.84 ± 0.06 | – | – | – | – | – | – | – | CC(=O)SCC(=O)NC(CO)C(=O)NC(CO)C(=O)NC(CO)C(=O)NCCCCCC(=O)NCCCCN1C(=CC=CC=CC2=[N+](CCCCCC(=O)NCCCCC(NC(=O)NC(CCC(=O)O)C(=O)O)C(=O)O)c3ccccc3C2(C)C)C(C)(C)c2c1ccc1ccccc21 (stereo not shown) [EuK-Cy5-(Ar)MAS3] | – | – |
| 175 ± 61.6 nM | 18 | 16 | 663 | 644 | – | – | 0.117 | 80 ± 6 | 86 ± 5 | -2.13 ± 0.1 | 19.93±13.44 | 2542±287 | – | – | – | – | – | CC(=O)SCC(=O)NC(CO)C(=O)NC(CO)C(=O)NC(CO)C(=O)NCCCCCC(=O)NCCCCN1C(=CC=CC=CC2=[N+](CCCCCC(=O)NCCCCC(NC(=O)NC(CCC(=O)O)C(=O)O)C(=O)O)c3ccccc3C2(C)C)C(C)(C)c2ccccc21 (stereo not shown) [EuK-Cy5-MAS3] | – | – |
| 345 nM | 18 | 14 | 700 | 682 | 7^‡ 10^3 M^−1 · cm^−1 | highest PPB | – | – | – | – | 0.87±0.66 | – | significantly lower serum stability | – | – | – | – | CC(=O)SCC(=O)NC(CO)C(=O)NC(CO)C(=O)NC(CO)C(=O)NCCCCCC(=O)NCCCCN1C(=CC=CC=CC2=[N+](CCCCCC(=O)NCCCCC(NC(=O)NC(CCC(=O)O)C(=O)O)C(=O)O)c3ccc4ccccc4c3C2(C)C)C(C)(C)c2c1ccc1ccccc21 (stereo not shown) [EuK(Ar)-Cy5-(Ar)MAS3] | clear nuclear imaging of the tumour | – |
| 113 ± 35.9 nM | 18 | 9 | 682 | 664 | 3^‡ 10^3 M^−1 · cm^−1 | highest PPB | 0.093 | 85 ± 3 | 79 ± 1 | -1.75 ± 0.1 | 0.94±0.13 and 1.10±0.14 | – | – | – | – | – | 6.91±1.08 | CC(=O)SCC(=O)NC(CO)C(=O)NC(CO)C(=O)NC(CO)C(=O)NCCCCCC(=O)NCCCCN1C(=CC=CC=CC2=[N+](CCCCCC(=O)NCCCCC(NC(=O)NC(CCC(=O)O)C(=O)O)C(=O)O)c3ccc4ccccc4c3C2(C)C)C(C)(C)c2ccccc21 (stereo not shown) [EuK(Ar)-Cy5-MAS3] | – | – |
| – | – | – | – | – | – | – | – | – | – | – | – | – | – | – | – | – | – | O=C(O)CC[C@H](NC(=O)N[C@@H](CCCCNC(=O)CCCCCCC(=O)NCCCC[C@@H](NC(=O)[C@@H](Cc1ccc2ccccc2c1)NC(=O)[C@@H](Cc1ccc(O)cc1)NC(=O)[C@@H](CO)NC(=O)[C@@H](CO)NC(=O)[C@@H](CO)NC(=O)CS)C(=O)O)C(=O)O)C(=O)O [PSMA I&S, reference compound] (Mercaptoacetyl-[dS][dS][dS][dY][d2Nal][dK](X1)-OH) | – | 186.0±23.0 |

| Structure (SMILES) | IC50 (PSMA [1]) | Stokes shift [2] [nm] | ΦF (quantum yield) [2] [%] | λem [2] [nm] | λex [2] [nm] | Brightness [2] | Plasma protein binding (PPB) (serum albumin) | fraction unbound (serum albumin) | Serum stability after 24 h, remaining absorbance [3] [% remaining] | Serum stability after 24 h, remaining fluorescence [3] [% remaining] | logP [4] | Hepatic clearance [5] | Tumour-to-fat ratio (T/F) [5] | Serum stability (comparison between tracers) ([3]; p<0.05) | PSMA affinity relative to EuK-Cy5(SO3)-MAS3 (PSMA [1]; ratio of affinities) | Tumour-to-blood ratio (T/B) ([5]; FIG. 5E) | Staining of LNCaP cells (confocal) (PSMA [7]) | Blood retention ([5]; 2 h post injection, FIG. 5B) [ID/g] | Nuclear (SPECT) imaging of the tumour [6] | Kidney accumulation ([5]; biodistribution 2 h post injection) [ID/g] |
| --- | --- | --- | --- | --- | --- | --- | --- | --- | --- | --- | --- | --- | --- | --- | --- | --- | --- | --- | --- | --- |
| CC(=O)SCC(=O)NC(CO)C(=O)NC(CO)C(=O)NC(CO)C(=O)NCCCCCC(=O)NCCCCN1C(=CC=CC=CC2=[N+](CCCCCC(=O)NCCCCC(NC(=O)NC(CCC(=O)O)C(=O)O)C(=O)O)c3ccc(S(=O)(=O)[O-])cc3C2(C)C)C(C)(C)c2ccccc21 (stereo not shown) [EuK(SO3)-Cy5-MAS3] | 19 nM and 19.2 nM | 16 | – | 664 | 648 | – | significantly higher than the PPB of EuK-Cy5-MAS3 | 0.15 | 97 ± 2 | 89 ± 6 | -2.86 ± 0.05 | 2.90±2.06 | – | – | more than 9 fold | 1713 | PSMA-related staining of LNCaP cells | – | clear nuclear imaging of the tumour | – |
| CC(=O)SCC(=O)NC(CO)C(=O)NC(CO)C(=O)NC(CO)C(=O)NCCCCCC(=O)NCCCCN1C(=CC=CC=CC2=[N+](CCCCCC(=O)NCCCCC(NC(=O)NC(CCC(=O)O)C(=O)O)C(=O)O)c3ccccc3C2(C)C)C(C)(C)c2cc(S(=O)(=O)[O-])ccc21 (stereo not shown) [EuK-Cy5-(SO3)MAS3] | 119 ± 117 nM | 16 | 7 | 664 | 648 | 10^‡ 10^3 M^−1 · cm^−1 | significantly higher than the PPB of EuK-Cy5-MAS3 | 0.126 | 82 ± 7 | 85 ± 1 | -2.7 ± 0.01 | – | 2658±659 | – | – | – | – | – | clear nuclear imaging of the tumour | – |
